± gives the expanded uncertainty stated by the source.
Assay: molar heat capacity at constant pressure
Settings: 101.33 kPa, Crystal

SMILES	molar heat capacity at constant pressure (298.15 K) [J/K/mol]	molar heat capacity at constant pressure (303.15 K) [J/K/mol]	molar heat capacity at constant pressure (308.15 K) [J/K/mol]	molar heat capacity at constant pressure (313.15 K) [J/K/mol]	molar heat capacity at constant pressure (318.15 K) [J/K/mol]	molar heat capacity at constant pressure (323.15 K) [J/K/mol]	molar heat capacity at constant pressure (328.15 K) [J/K/mol]	molar heat capacity at constant pressure (333.15 K) [J/K/mol]	molar heat capacity at constant pressure (338.15 K) [J/K/mol]	molar heat capacity at constant pressure (343.15 K) [J/K/mol]
Cn1c2c(c(=O)n(C)c1=O)CCCCC2	314.5 ± 9.7	321.6 ± 10	329 ± 10	333.6 ± 10	341.1 ± 11	347.9 ± 11	353.3 ± 11	358.4 ± 11	363.2 ± 11	367.3 ± 11
Cc1cc(=O)n(C)c(=O)n1C [1,3,6-trimethyl-2,4(1H,3H)-pyrimidinedione]	212.6 ± 7.2	213.5 ± 7.2	217.1 ± 7.3	218.5 ± 7.4	219.8 ± 7.4	223.4 ± 7.5	228.3 ± 7.6	229 ± 7.6	236.5 ± 7.8	239.6 ± 7.9
Cn1ccc(=O)n(C)c1=O [1,3-dimethyl-2,4-(1H,3H)-pyrimidinedione]	182.5 ± 5.7	185.4 ± 5.7	188.7 ± 5.8	191.2 ± 5.9	193.8 ± 6	196.4 ± 6.1	199.1 ± 6.2	201 ± 6.2	203.3 ± 6.3	206.8 ± 6.4
Cn1c2c(c(=O)n(C)c1=O)CCCC2 [1,3-dimethyl-5,6,7,8-tetrahydroquinazoline-2,4(1H,3H)-dione]	282.9 ± 8.8	291.2 ± 9	296.2 ± 9.2	305.8 ± 9.5	310.9 ± 9.6	319.8 ± 9.9				
Cn1c2c(c(=O)n(C)c1=O)CCC2 [1,3-dimethyl-5,6-trimethyleneuracil]	252.9 ± 7.8	258.1 ± 8	261.8 ± 8.1							
Cc1cn(C)c(=O)[nH]c1=O [1,5-dimethyluracil]	187.6 ± 5.8	190 ± 5.9	190.3 ± 5.9	194.1 ± 6	194.8 ± 6	198.5 ± 6.2	199.2 ± 6.2	202 ± 6.3	203 ± 6.3	205.2 ± 6.4
Cc1cc(=O)[nH]c(=O)n1C [1,6-dimethyluracil]	188.1 ± 7	194.3 ± 7.2	197.9 ± 7.2	202.6 ± 7.3	206.8 ± 7.4	211 ± 7.5	217.9 ± 7.7	225.1 ± 7.9	233.1 ± 8	239.8 ± 8.2
Cn1ccc(=O)[nH]c1=O [1-methyl-2,4(1H,3H)-pyrimidinedione]	156.9 ± 4.9	167.2 ± 5.2	179.6 ± 5.6	190.9 ± 5.9	200.5 ± 6.2	211.1 ± 6.5	223 ± 6.9	235 ± 7.3	245.9 ± 7.6	256.1 ± 7.9
Cc1c(C)n(C)c(=O)n(C)c1=O [2,4(1H,3H)-pyrimidinedione, 1,3,5,6-tetramethyl-]	244.5 ± 7.9	248.8 ± 8	254 ± 8.1	256.5 ± 8.2	260.9 ± 8.3	266.7 ± 8.4	271.2 ± 8.6	276.6 ± 8.7	282.3 ± 8.8	291.5 ± 9.1
CCCc1cn(C)c(=O)n(C)c1=O [2,4(1H,3H)-pyrimidinedione, 1,3-dimethyl-5-propyl-]	302.7 ± 9.4	302.7 ± 9.4	302.8 ± 9.4	303 ± 9.4	306.2 ± 9.5	308.4 ± 9.6				
CCCc1cc(=O)n(C)c(=O)n1C [2,4(1H,3H)-pyrimidinedione, 1,3-dimethyl-6-propyl-]	287.2 ± 10	288.8 ± 10	290.5 ± 10	292.2 ± 10	293.9 ± 10	303.9 ± 10				
CCCCc1cn(C)c(=O)n(C)c1=O [2,4(1H,3H)-pyrimidinedione, 5-butyl-1,3-dimethyl-]	358.1 ± 14	544.2 ± 22								
CCc1cn(C)c(=O)n(C)c1=O [2,4(1H,3H)-pyrimidinedione, 5-ethyl-1,3-dimethyl-]	241.1 ± 8.5	250.1 ± 8.7	256.5 ± 8.8	261 ± 8.9	264.3 ± 9	267.4 ± 9.1	270.7 ± 9.1	275.2 ± 9.3	281.7 ± 9.4	291.1 ± 9.6
CCCCc1cc(=O)n(C)c(=O)n1C [2,4(1H,3H)-pyrimidinedione, 6-butyl-1,3-dimethyl-]	296.4 ± 9.2	297.9 ± 9.2	299.4 ± 9.3	300.9 ± 9.3	302.1 ± 9.4	305.3 ± 9.5				
CCc1cc(=O)n(C)c(=O)n1C [2,4(1H,3H)-pyrimidinedione, 6-ethyl-1,3-dimethyl-]	241.8 ± 9.6	243.4 ± 9.7	245.3 ± 9.7	246.3 ± 9.7	248.3 ± 9.8	259.6 ± 10				
O=c1cc[nH]c(=O)[nH]1 [2,4(1H,3H)-pyrimidinedione]	131.8 ± 4.7	135.5 ± 4.7	140.9 ± 4.9	143 ± 4.9	146.1 ± 5	149 ± 5.1	151.8 ± 5.1	154.3 ± 5.2	156.8 ± 5.2	157.4 ± 5.3
Cc1nc(O)nc(O)c1C [2,4-dihydroxy-5,6-dimethylpyrimidine]	191.1 ± 5.9	198.3 ± 6.1	203.2 ± 6.3	208 ± 6.4	212 ± 6.6	215.6 ± 6.7	219.1 ± 6.8	223.3 ± 6.9	229.3 ± 7.1	234.1 ± 7.3
Cc1cc(O)nc(O)n1 [2,4-dihydroxy-6-methylpyrimidine]	162.5 ± 5	167.2 ± 5.2	170.2 ± 5.3	172.2 ± 5.3	176.9 ± 5.5	181.4 ± 5.6	183 ± 5.7	187.3 ± 5.8	190.4 ± 5.9	193 ± 6

Reference: the NIST ThermoML archive (doi:10.1021/je060257y)
